From PubChem BioAssay AID2060496 (Molecular Pharmacology Branch, DTP, NCI, 2025)

System: 276233-004-R-J1-PDC complex spheroid viability
Assay: Anticancer human tumor 276233-004-R-J1-PDC patient-derived colon adenocarcinoma cell line growth inhibition [GQUAD]
Conditions: for IC50: curve of first compound; for viability, T/C: stronger effect = lower value
In short: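 Viability of tumor cells grown as complex spheroids with endothelial and stromal cells, exposed to drug combinations. Top concentration at or near clinical Cmax (else 10 microM), diluted in half-log increments.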
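Further: spheroids exposed to drugs for seven days.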
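Wherever viability, T/C is given: 100% = DMSO vehicle control viability.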

Cn1ncnc1[C@H]1c2n[nH]c(=O)c3cc(F)cc(c23)N[C@@H]1c1ccc(F)cc1 + CN(C)c1ccc(Nc2c3ccc(NC(=O)CCN4CCCC4)cc3nc3cc(NC(=O)CCN4CCCC4)ccc23)cc1
IC50 (second compound 0.0316 µM): > 316 nM | IC50 (second compound 0.1 µM): > 316 nM | IC50 (second compound 0.316 µM): > 316 nM | IC50 (second compound 1 µM): > 316 nM | IC50 (second compound 3.16 µM): > 316 nM | IC50 (second compound 10 µM): < 0.999 nM | viability, T/C (second compound 0.0316 µM, first compound 0.000999 µM): 81.5% | viability, T/C (second compound 0.0316 µM, first compound 0.00316 µM): 96.6% | viability, T/C (second compound 0.0316 µM, first compound 0.00999 µM): 85.2% | viability, T/C (second compound 0.0316 µM, first compound 0.0316 µM): 88.2% | viability, T/C (second compound 0.0316 µM, first compound 0.0999 µM): 94.6% | viability, T/C (second compound 0.0316 µM, first compound 0.316 µM): 97.8% | viability, T/C (second compound 0.1 µM, first compound 0.000999 µM): 90.3% | viability, T/C (second compound 0.1 µM, first compound 0.00316 µM): 81.3% | viability, T/C (second compound 0.1 µM, first compound 0.00999 µM): 90.7% | viability, T/C (second compound 0.1 µM, first compound 0.0316 µM): 84.7% | viability, T/C (second compound 0.1 µM, first compound 0.0999 µM): 70.4% | viability, T/C (second compound 0.1 µM, first compound 0.316 µM): 64.3% | viability, T/C (second compound 0.316 µM, first compound 0.000999 µM): 68% | viability, T/C (second compound 0.316 µM, first compound 0.00316 µM): 62.4% | viability, T/C (second compound 0.316 µM, first compound 0.00999 µM): 69.6% | viability, T/C (second compound 0.316 µM, first compound 0.0316 µM): 61.3% | viability, T/C (second compound 0.316 µM, first compound 0.0999 µM): 61.9% | viability, T/C (second compound 0.316 µM, first compound 0.316 µM): 67.4% | viability, T/C (second compound 1 µM, first compound 0.000999 µM): 57.5% | viability, T/C (second compound 1 µM, first compound 0.00316 µM): 51% | viability, T/C (second compound 1 µM, first compound 0.00999 µM): 42.3% | viability, T/C (second compound 1 µM, first compound 0.0316 µM): 58.1% | viability, T/C (second compound 1 µM, first compound 0.0999 µM): 48% | viability, T/C (second compound 1 µM, first compound 0.316 µM): 52.8% | viability, T/C (second compound 3.16 µM, first compound 0.000999 µM): 62.4% | viability, T/C (second compound 3.16 µM, first compound 0.00316 µM): 60.7% | viability, T/C (second compound 3.16 µM, first compound 0.00999 µM): 54.5% | viability, T/C (second compound 3.16 µM, first compound 0.0316 µM): 60.7% | viability, T/C (second compound 3.16 µM, first compound 0.0999 µM): 59.9% | viability, T/C (second compound 3.16 µM, first compound 0.316 µM): 52.7% | viability, T/C (second compound 10 µM, first compound 0.000999 µM): 47.2% | viability, T/C (second compound 10 µM, first compound 0.00316 µM): 43.1% | viability, T/C (second compound 10 µM, first compound 0.00999 µM): 55.8% | viability, T/C (second compound 10 µM, first compound 0.0316 µM): 47.6% | viability, T/C (second compound 10 µM, first compound 0.0999 µM): 57.1% | viability, T/C (second compound 10 µM, first compound 0.316 µM): 54.2%
